Laboratory results: the supplement of paper PMC10307832

compound: O=C(O)C(Cc1ccccc1[N+](=O)[O-])=NNc1nc(-c2ccc(Cl)c(Cl)c2)cs1 (mixture of isomers) [4EGI-1] + Cc1cc(Nc2cc(N3CCN(C)CC3)nc(Sc3ccc(NC(=O)C4CC4)cc3)n2)n[nH]1 [Tozasertib] (partner 0.1 µM); test: relative viability (nuclei count vs DMSO), 5 days (fraction); higher = more cells survive; conditions: first compound 0.5 µM
Procedure, shortened: (§1)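 Nuclei were stained with Hoechst during a one-step fixation (final 0.05% Triton X-100, 1% formaldehyde, 1 ug/ml Hoechst) carried out 5 days after dosing, then counted on 4× images. The cells, lung cancer lines in 1536-well plates, had been dosed by pin tool the day after seeding with one drug alone or a fixed anchor-drug dose plus five library-drug doses (not always all listed) in √10 steps. Relative viability is the nuclei count in treated wells divided by that in vehicle wells, and each value is the median of duplicate plates.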

Cell Line | relative viability
NCI-H596 | 1.01
NCI-H647 | 0.262
NCI-H650 | 0.858
NCI-H661 | 0.336
NCI-H727 | 0.595
NCI-H838 | 0.261
NCI-H1355 | 0.551
NCI-H1395 | 0.868
NCI-H1437 | 0.416
NCI-H1650 | 0.474
NCI-H1651 | 0.704
NCI-H1666 | 0.61
NCI-H1734 | 0.263
NCI-H1755 | 0.625
NCI-H1793 | 0.318
NCI-H1915 | 0.448

Cell Line | relative viability
NCI-H1944 | 0.262
NCI-H1975 | 0.773
NCI-H1993 | 0.552
NCI-H2009 | 0.813
NCI-H2023 | 0.377
NCI-H2085 | 0.835
NCI-H2087 | 0.272
NCI-H2126 | 1
NCI-H2170 | 0.829
NCI-H2228 | 0.276
NCI-H2342 | 0.549
NCI-H2347 | 0.589
NCI-H2405 | 0.723
NCI-H3122 | 0.418
PC-3 [JPC-3] | 0.881
PC-14 | 0.584

same assay, conditions: first compound 1.581 µM

Cell Line | relative viability
NCI-H522 | 0.491
NCI-H596 | 0.769
NCI-H661 | 0.34
NCI-H727 | 0.765
NCI-H1355 | 0.551
NCI-H1395 | 0.637
NCI-H1437 | 0.378
NCI-H1651 | 0.518
NCI-H1666 | 0.535
NCI-H1734 | 0.27
NCI-H1755 | 0.569
NCI-H1793 | 0.364
NCI-H1915 | 0.327
NCI-H1975 | 0.653
NCI-H1993 | 0.627
NCI-H2009 | 0.709
NCI-H2085 | 0.859
NCI-H2087 | 0.261
NCI-H2170 | 0.728
NCI-H2228 | 0.273
NCI-H2342 | 0.598
NCI-H2405 | 0.645
PC-3 [JPC-3] | 0.863

same assay, conditions: first compound 5 µM

Cell Line | relative viability
NCI-H522 | 0.595
NCI-H596 | 0.987
NCI-H647 | 0.35
NCI-H650 | 0.777
NCI-H661 | 0.34
NCI-H727 | 0.502
NCI-H838 | 0.263
NCI-H1355 | 0.559
NCI-H1395 | 0.764
NCI-H1437 | 0.399
NCI-H1650 | 0.413
NCI-H1651 | 0.678
NCI-H1666 | 0.647
NCI-H1734 | 0.263
NCI-H1755 | 0.525
NCI-H1793 | 0.391
NCI-H1915 | 0.421

Cell Line | relative viability
NCI-H1944 | 0.241
NCI-H1975 | 0.785
NCI-H1993 | 0.563
NCI-H2009 | 0.784
NCI-H2023 | 0.38
NCI-H2085 | 0.836
NCI-H2087 | 0.227
NCI-H2126 | 0.861
NCI-H2170 | 0.628
NCI-H2228 | 0.248
NCI-H2342 | 0.655
NCI-H2347 | 0.557
NCI-H2405 | 0.815
NCI-H3122 | 0.387
PC-3 [JPC-3] | 0.825
PC-14 | 0.57

same assay, conditions: first compound 15.81 µM

Cell Line | relative viability
NCI-H522 | 0.558
NCI-H596 | 0.949
NCI-H647 | 0.199
NCI-H650 | 0.644
NCI-H661 | 0.355
NCI-H727 | 0.499
NCI-H838 | 0.235
NCI-H1355 | 0.429
NCI-H1395 | 0.711
NCI-H1437 | 0.318
NCI-H1650 | 0.327
NCI-H1651 | 0.383
NCI-H1666 | 0.448
NCI-H1734 | 0.288
NCI-H1755 | 0.486
NCI-H1793 | 0.247

Cell Line | relative viability
NCI-H1915 | 0.326
NCI-H1944 | 0.192
NCI-H1975 | 0.523
NCI-H1993 | 0.511
NCI-H2009 | 0.697
NCI-H2023 | 0.259
NCI-H2085 | 0.724
NCI-H2087 | 0.164
NCI-H2126 | 0.822
NCI-H2170 | 0.617
NCI-H2228 | 0.285
NCI-H2342 | 0.544
NCI-H2347 | 0.46
NCI-H2405 | 0.789
NCI-H3122 | 0.334

same assay, conditions: first compound 50 µM

Cell Line | relative viability
NCI-H522 | 0.457
NCI-H596 | 0.783
NCI-H647 | 0.133
NCI-H650 | 0.626
NCI-H661 | 0.283
NCI-H727 | 0.585
NCI-H838 | 0.172
NCI-H1355 | 0.291
NCI-H1395 | 0.477
NCI-H1437 | 0.175
NCI-H1650 | 0.267
NCI-H1651 | 0.372
NCI-H1666 | 0.328
NCI-H1734 | 0.214
NCI-H1755 | 0.355
NCI-H1793 | 0.2
NCI-H1915 | 0.201

Cell Line | relative viability
NCI-H1944 | 0.202
NCI-H1975 | 0.179
NCI-H1993 | 0.492
NCI-H2009 | 0.211
NCI-H2023 | 0.142
NCI-H2085 | 0.775
NCI-H2087 | 0.167
NCI-H2126 | 0.741
NCI-H2170 | 0.314
NCI-H2228 | 0.134
NCI-H2342 | 0.511
NCI-H2347 | 0.467
NCI-H2405 | 0.839
NCI-H3122 | 0.116
PC-3 [JPC-3] | 0.711
PC-14 | 0.28

compound: CN1CCN(CC1)C2=CC(=C(C=C2)NC3=NC=C4C(=N3)N(C5=CC=CC=C5C(=O)N4C)C)OC [XMD8-85] + Cc1nc(Nc2ncc(C(=O)Nc3c(C)cccc3Cl)s2)cc(N2CCN(CCO)CC2)n1 [Dasatinib] (partner 0.075 µM); test: as above; conditions: first compound 0.08 µM
Procedure, shortened: as §1

Cell Line | relative viability
NCI-H522 | 0.858
NCI-H596 | 0.599
NCI-H647 | 0.197
NCI-H650 | 0.446
NCI-H661 | 0.81
NCI-H727 | 0.295
NCI-H838 | 0.397
